Test results from patent US11464779B2, “Pharmaceutical formulation of palbociclib and a preparation method thereof” (Shenzhen Pharmacin Co., Ltd., priority 2016, dated 2022).

Legend:
[1] = dynamic solubility test in buffer at pH 6.0 with stirring; assay type: physicochemical; conditions: phosphate buffer pH 6.0, stirring for 60 minutes
Description: 62.5 mg of the solid dispersion prepared in Example 3 (containing 12.5 mg of the API of palbociclib in proportion) and 12.5 mg of the API of palbociclib were weighed separately, placed into two 100 ml beakers, respectively, and marked with T1 and T2. 90 ml of phosphate buffer (pH 6.0) was added to the two beakers respectively and a magnetic stir bar was placed therein. The two beakers were placed on a magnetic stirrer separately. 1 ml of the solution was removed separately from each of the beakers at the time points of 5, 10, 20, 40, and 60 minutes and filtered through a 0.45 μm micro PES polyethersulfone filter membrane. The filtrate was analyzed by high performance liquid chromatography, the content of the API of palbociclib was determined and the dissolution percentage was calculated.

[2] = co-dissolution of API of palbociclib and acidic auxiliary material in a solvent; assay type: physicochemical; conditions: co-dissolved with pharmaceutically acceptable acidic auxiliary material; solvent e.g. water
Description: The present invention also provides a method for the preparation of a solid dispersion, comprising: mixing palbociclib with an acidic auxiliary material; adding a solvent (including but not limited to water, ethanol, acetone and a mixture thereof, preferably water or a mixture thereof with other solvents, e.g. the mixture of water and ethanol, the mixture of water and acetone, etc.) for dissolving or dispersing; adding a hydrophilic high-molecular material, dissolving or dispersing evenly; and removing the solvent by heating, for example, evaporating the solvent to dry by vacuum drying or heating drying or freeze drying or other drying ways, in order to achieve the purpose of dispersing the drug in the high-molecular solid carrier to a high degree, so as to prepare the solid dispersion.
In the preparation of the solid dispersion of the present invention, the concentration of the API of palbociclib in the solvent (e.g., water) can be up to 50 mg/ml or more, thereby improving the preparation efficiency of the solid dispersion.

[3] = according to WO2005/005426; cited from earlier work

dynamic solubility (dissolution percentage) [1]: 58%
concentration of the API of palbociclib in the solvent [2]: ≥ 50000 µg/mL
Compound: CC(=O)c1c(C)c2cnc(Nc3ccc(N4CCNCC4)cn3)nc2n(C2CCCC2)c1=O [API of palbociclib, palbociclib]
solubility in water [3]: poor
